Test results as given in US4031093A, “1,6-Dihydro-6-oxo-2-(ortho-substituted phenyl)pyrimidine-5-carboxylic acid derivatives” (priority 1976, dated 1977).
Like-named read-outs stand apart in the source and are kept apart here.

Legend:
[1] = tested on: reagin-mediated rat Passive Cutaneous Anaphylaxis (PCA); test: reagin-mediated rat Passive Cutaneous Anaphylaxis (PCA) screening test; format: in vivo, rat (Sprague-Dawley)
Method: The reagin-mediated rat Passive Cutaneous Anaphylaxis (PCA) screening test used to evaluate the present compounds is generally regarded as one of the best animal models for use in predicting the antiallergy activity of test compounds in man. Briefly, the method consists of passive sensitization of skin sites on the test animals with reaginic antibodies followed after 24 hours by administration of the test drug and antigen challenge. The allergic response is measured by use of Evans' blue dye and is evaluated by the spot diameter at the injection site. Details of the test are provided below.
A substituted ovalbumin antigen is used both as immunogen and challenging antigen. The antigen is prepared as follows: 500 mg. ovalbumin (EA) and 500 mg. K2 CO3 are dissolved in 25 ml. distilled H2 O and stirred at room temperature for 5 minutes. Five hundred (500) mg. dinitrobenzene sulfonic acid, Na^+ salt, (previously recrystallized from hot absolute ethanol) is then added slowly with continued stirring. The reaction mixture is then immediately placed in the dark and allowed to proceed for 2 hours with constant stirring. After 2 hours the mixture is placed in suitable dialysis tubing and dialyzed against 5 changes (4 liters each) of distilled H2 O at 5° C. After dialysis the product is lyophilized and stored at room temperature in a brown or amber container. The antigen obtained will appear as a light yellow, amorphous solid which is very soluble in water or saline. It is designated as DNP denatured ovalbumin (DNP-d EA).
Adult, male Sprague-Dawley rats are used as a source of reagin-rich antisera for the PCA model. Immunization is by a combination of DNP-d EA on Al (OH)3 gel and B. pertussis vaccine. Preparation of the DNP-d EA - gel immunogen is as follows: Dissolve the DNP-d EA in TBS so as to give a concentration of 10 mg./ml. Slowly add 1 ml. of this solution to 10 ml. Al(OH)3 gel (10 mg. solids/ml.) with constant stirring at room temperature. Stir the mixture an additional 30 minutes to insure a uniform adsorption of antigen on gel.
The resulting preparation is then used in combination with phase I B. pertussis vaccine to immunize male S/D rats as follows: For each rat administer 0.1 ml. DNP-d EA - gel suspension intramuscularly in each hind leg (200 μg DNP-d EA and 2 mg. gel total dose). Follow these injections by the intraperitoneal administration of 1.0 ml. B. pertussis vaccine (10-20 × 10^9 organisms). The use of light ether anesthesia during this procedure is recommended to insure proper intramuscular and intraperitoneal injections. Nine days following immunization (but no longer than 10) the animals are exsanguinated by cardiac puncture or abdominal aorta cannulation under ether or pentobarbital anesthesia. The collected whole blood is allowed to clot, the serum separated by centrifugation and the individual serum samples stored frozen until assayed for IgE content.
Individual serum samples should be screened for reaginic antibody concentration before being pooled with other sera, as not all rats respond to immunization procedures with reagin production. A 1:50 saline dilution of serum from each immunized rat is used for this purpose. Intradermal injections of 0.05 ml. of the diluted sera are made in the shaven backs of two small female recipient rats, 100-120 gms. Several serum samples can be tested simultaneously in recipient animals. After a 24 to 48 hour latent period antigen challenge is accomplished by […] administration to each rat of 1 mg. DNP-d EA in 0.5 ml. 0.5% Evans' blue dye in saline. Sera which show positive PCA reactions at the 1:50 dilution, as measured 20 to 30 minutes post-challenge are pooled, dispensed in small aliquots and stored at -70° C. or lower until used. Negative sera may be discarded.
The IgE titer of the antisera pool should then be determined. […]

[2] = bronchial asthma treatment; cited from earlier work
[3] = cited from earlier work
[4] = tested on: release of mediators, e.g. histamine and SRS-A; settings: administered to asthmatic patients prior to inhalation of specific antigens; cited from earlier work
[5] = po, Table II, p.o., 10 minutes prior to antigen challenge, acids solubilized in aqueous sodium bicarbonate, read-out: ID50 (dose of compound that inhibits 50% of the response), 5-carboxylic acids, p.o.
[6] = po, Table I, p.o., 10 minutes prior to antigen challenge, esters suspended in Tween/CMC, read-out: ID50 (dose of compound that inhibits 50% of the response), ethyl esters, p.o.
[7] = iv, Table II, i.v., 1-5 minutes prior to antigen challenge, acids solubilized in aqueous sodium bicarbonate, read-out: ID50 (dose of compound that inhibits 50% of the response), 5-carboxylic acids, i.v.

Compound	ED50 [1, 5]	ED50 [1, 6]	also measured
CCCOc1ccc(OC)cc1-c1ncc(C(=O)O)c(=O)[nH]1 [Example 27, 1,6-Dihydro-6-oxo-2-(5-methoxy-2-n-propoxyphenyl)pyrimidine-5-carboxylic acid]	0.3 mg/kg	–	–
CCOC(=O)c1cnc(-c2cc(Cl)ccc2OCC)[nH]c1=O [Example 15B, Ethyl 1,6-dihydro-6-oxo-2-(5-chloro-2-ethoxyphenyl)pyrimidine-5-carboxylate]	–	~0.5 mg/kg	–
O=C(O)c1cnc(-c2ccccc2OCC2CC2)[nH]c1=O [Example 25, 1,6-Dihydro-6-oxo-2-(2-cyclopropylmethoxyphenyl)pyrimidine-5-carboxylic acid]	~0.1 mg/kg	–	–
CC(C)NCC(O)c1ccc(O)c(O)c1 (stereo not drawn) [isoproterenol]	–	–	side effects [2]: undesirable side effects, e.g. cardiac stimulation and gastrointestinal distress
CCOc1ccc(Cl)cc1-c1ncc(C(=O)O)c(=O)[nH]1 [Example 24E, 1,6-Dihydro-6-oxo-2-(5-chloro-2-ethoxyphenyl)pyrimidine-5-carboxylic acid]	0.5 mg/kg	–	–
CCOc1ccc(OC)cc1-c1ncc(C(=O)O)c(=O)[nH]1 [Example 24G, 1,6-Dihydro-6-oxo-2-(2-ethoxy-5-methoxyphenyl)pyrimidine-5-carboxylic acid]	0.2 mg/kg	–	–
CCOc1ccc(N(C)C)cc1-c1ncc(C(=O)O)c(=O)[nH]1 [Example 26, 1,6-Dihydro-6-oxo-2-(5-dimethylamino-2-ethoxyphenyl)pyrimidine-5-carboxylicacid]	0.3 mg/kg	–	–
CN1[C@@H]2CC[C@H]1C[C@@H](OC(=O)C(CO)c1ccccc1)C2 (stereo partly drawn) [atropine]	–	–	side effects [2]: undesirable side effects, e.g. cardiac stimulation and gastrointestinal distress
CCOC(=O)c1cnc(-c2ccccc2OCC(C)C)[nH]c1=O [Example 12, Ethyl 1,6-dihydro-6-oxo-2-(2-isobutoxyphenyl)pyrimidine-5-carboxylate]	–	~3 mg/kg	–
CCCCOc1ccccc1-c1ncc(C(=O)OCC)c(=O)[nH]1 [Example 9, Ethyl 1,6-dihydro-6-oxo-2-(2-n-butoxyphenyl)pyrimidine-5-carboxylate]	–	0.5 mg/kg	–
CCOc1ccc(N)cc1-c1ncc(C(=O)O)c(=O)[nH]1 [Example 24F, 1,6-Dihydro-6-oxo-2-(5-amino-2-ethoxyphenyl)pyrimidine-5-carboxylic acid]	0.9 mg/kg	–	–
C=CCOc1ccccc1-c1ncc(C(=O)OCC)c(=O)[nH]1 [Example 8, Ethyl 1,6-dihydro-6-oxo-2-(2-allyloxyphenyl)pyrimidine-5-carboxylate]	–	0.5 mg/kg	–
CCCOc1ccccc1-c1ncc(C(=O)OCC)c(=O)[nH]1 [Example 5, Ethyl 1,6-dihydro-6-oxo-2-(2-n-propoxyphenyl)pyrimidine-5-carboxylate]	–	~5 mg/kg	–
CCOC(=O)c1cnc(-c2ccccc2OCC)[nH]c1=O [Example 1, Ethyl 1,6-dihydro-6-oxo-2-(2-ethoxyphenyl)pyrimidine-5-carboxylate]	–	~2 mg/kg	ED50 ([1]; iv, Table I, i.v., 1-5 minutes prior to antigen challenge, esters suspended in Tween/CMC, read-out: ID50 (dose of compound that inhibits 50% of the response), ethyl esters, i.v.): 0.4 mg/kg
O=C(O)c1cc(=O)c2c(OCC(O)COc3cccc4oc(C(=O)O)cc(=O)c34)cccc2o1 [DSCG, Disodium cromoglycate, reference compound]	> 30 mg/kg	> 30 mg/kg	oral absorption [3]: not orally absorbed; inhibition of release of mediators [4]: inhibits the release of mediators, e.g. histamine and SRS-A; ED50 ([1]; iv, Table I, i.v., compound dosed at time of challenge, solubilized in saline, read-out: ID50, DSCG, i.v. (Table I)): 0.3 mg/kg
CCOC(=O)c1cnc(-c2ccccc2OCC2CC2)[nH]c1=O [Example 18, Ethyl 1,6-dihydro-6-oxo-2-(2-cyclopropylmethoxyphenyl)pyrimidine-5-carboxylate]	–	~0.3 mg/kg	–

Compound	ED50 [1, 5]	ED50 [1, 6]	also measured
COc1ccc(OC)c(-c2ncc(C(=O)O)c(=O)[nH]2)c1 [Example 24D, 1,6-Dihydro-6-oxo-2-(2,5-dimethoxyphenyl)pyrimidine-5-carboxylic acid]	1 mg/kg	–	–
CCCCOc1ccccc1-c1ncc(C(=O)O)c(=O)[nH]1 [Example 23, 1,6-Dihydro-6-oxo-2-(2-n-butoxyphenyl)pyrimidine-5-carboxylic acid]	0.5 mg/kg	–	–
CCCOc1ccccc1-c1ncc(C(=O)O)c(=O)[nH]1 [Example 21, 1,6-Dihydro-6-oxo-2-(2-n-propoxyphenyl)pyrimidine-5-carboxylic acid]	0.9 mg/kg	–	ED50 [1, 7]: ~0.1 mg/kg
CCOc1ccccc1-c1ncc(C(=O)O)c(=O)[nH]1 [Example 20, 1,6-Dihydro-6-oxo-2-(2-ethoxyphenyl)pyrimidine-5-carboxylic acid]	0.5 mg/kg	–	ED50 [1, 7]: 0.07 mg/kg
CCOC(=O)c1cnc(-c2cc(OC)ccc2OC)[nH]c1=O [Example 15A, Ethyl 1,6-dihydro-6-oxo-2-(2,5-dimethoxyphenyl)pyrimidine-5-carboxylate]	–	5 mg/kg	–
CCOC(=O)c1ccc(OCC)c(-c2ncc(C(=O)OCC)c(=O)[nH]2)c1 [Example 16, Ethyl 1,6-dihydro-6-oxo-2-(5-carbethoxy-2-ethoxyphenyl)pyrimidine-5-carboxylate]	–	1 mg/kg	–
CCC(C)Oc1ccccc1-c1ncc(C(=O)O)c(=O)[nH]1 (racemic) [Example 24B, (±)-1,6-Dihydro-6-oxo-2-(2-sec-butoxyphenyl)pyrimidine-5-carboxylic acid]	0.5 mg/kg	–	–
CNC[C@H](O)c1ccc(O)c(O)c1 [epinephrine]	–	–	side effects [2]: undesirable side effects, e.g. cardiac stimulation and gastrointestinal distress
CCOC(=O)c1cnc(-c2ccccc2OC(C)C)[nH]c1=O [Example 7, Ethyl 1,6-dihydro-6-oxo-2-(2-isopropoxyphenyl)pyrimidine-5-carboxylate]	–	~2 mg/kg	–
C=CCOc1ccccc1-c1ncc(C(=O)O)c(=O)[nH]1 [Example 24A, 1,6-Dihydro-6-oxo-2-(2-allyloxyphenyl)pyrimidine-5-carboxylic acid]	0.5 mg/kg	–	–
CC(C)COc1ccccc1-c1ncc(C(=O)O)c(=O)[nH]1 [Example 24C, 1,6-Dihydro-6-oxo-2-(2-isobutoxyphenyl)pyrimidine-5-carboxylic acid]	0.5 mg/kg	–	–
CCOC(=O)c1cnc(-c2cc(OC)ccc2OCC)[nH]c1=O [Example 15C, Ethyl 1,6-dihydro-6-oxo-2-(2-ethoxy-5-methoxyphenyl)pyrimidine-5-carboxylate]	–	0.3 mg/kg	–
CCOC(=O)c1cnc(-c2cc(N)ccc2OCC)[nH]c1=O [Example 17, Ethyl 1,6-dihydro-6-oxo-2-(5-amino-2-ethoxyphenyl)pyrimidine-5-carboxylate]	–	0.5 mg/kg	–
CCCOc1ccc(OC)cc1-c1ncc(C(=O)OCC)c(=O)[nH]1 [Example 19, Ethyl 1,6-dihydro-6-oxo-2-(5-methoxy-2-n-propoxyphenyl)-pyrimidine-5-carboxylate]	–	0.7 mg/kg	–
CC(C)Oc1ccccc1-c1ncc(C(=O)O)c(=O)[nH]1 [Example 22, 1,6-Dihydro-6-oxo-2-(2-isopropoxyphenyl)pyrimidine-5-carboxylic acid]	0.8 mg/kg	–	–
CCOC(=O)c1cnc(-c2ccccc2OC(C)CC)[nH]c1=O (racemic) [Example 10, Ethyl (±)-1,6-dihydro-6-oxo-2-(2-sec-butoxyphenyl)pyrimidine-5-carboxylate]	–	0.5 mg/kg	–
